Active and inactive are the calls of the source. No cut-off for these calls is given here.

This passage reports Ki, Ratio Ki and Activity results from ChEMBL document CHEMBL1649088, “Structural optimization of azadipeptide nitriles strongly increases association rates and allows the development of selective cathepsin inhibitors” (J Med Chem, 2011).

For experiment [1], the target named is Procathepsin L (Homo sapiens, UniProt P07711). Put plainly: Inhibition of human recombinant cathepsin L after 30 mins by spectrophotometric assay.
Procathepsin L, sequence (P07711 whole entry): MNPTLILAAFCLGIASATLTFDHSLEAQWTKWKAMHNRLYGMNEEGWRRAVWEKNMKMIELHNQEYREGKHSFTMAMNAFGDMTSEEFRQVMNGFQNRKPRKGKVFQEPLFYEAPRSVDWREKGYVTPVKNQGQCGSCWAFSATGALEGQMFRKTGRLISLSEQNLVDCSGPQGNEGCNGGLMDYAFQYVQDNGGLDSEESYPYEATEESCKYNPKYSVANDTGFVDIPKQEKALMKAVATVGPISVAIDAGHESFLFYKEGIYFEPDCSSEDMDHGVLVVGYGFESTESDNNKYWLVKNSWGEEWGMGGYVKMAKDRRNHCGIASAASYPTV
Experiment [2] deals with Cathepsin B (Homo sapiens, UniProt P07858). Kind of experiment: Inhibition of human recombinant cathepsin B after 30 mins by spectrophotometric assay.
Experiment [3] has as its target T1, Cathepsin K (Homo sapiens, UniProt P43235).
T1 sequence (P43235 whole entry): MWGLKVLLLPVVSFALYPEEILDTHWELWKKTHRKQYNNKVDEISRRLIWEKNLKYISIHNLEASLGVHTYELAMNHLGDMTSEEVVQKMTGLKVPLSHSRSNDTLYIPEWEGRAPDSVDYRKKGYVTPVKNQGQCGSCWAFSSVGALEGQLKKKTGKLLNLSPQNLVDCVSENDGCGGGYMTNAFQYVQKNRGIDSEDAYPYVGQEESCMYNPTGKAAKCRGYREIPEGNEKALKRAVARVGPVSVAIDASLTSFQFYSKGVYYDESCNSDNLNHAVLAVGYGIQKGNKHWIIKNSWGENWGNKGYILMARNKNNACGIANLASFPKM
Kind of experiment: Inhibition of human recombinant cathepsin K after 30 mins by spectrophotometric assay.

Experiment [4] concerns the target Cathepsin S (Homo sapiens, UniProt P25774). Put plainly: Inhibition of human cathepsin S after 30 mins by spectrophotometric assay.
The species entered for experiment [5] is Homo sapiens. Put plainly: Selectivity ratio, ratio of Ki for human recombinant cathepsin B to Ki for human recombinant cathepsin K.
The target in experiment [6] is T2, Cathepsin K (Homo sapiens) (UniProt P43235).
T2 sequence (whole entry): T1 sequence (P43235 whole entry)
Put plainly: Reversible inhibition of human recombinant cathepsin K at 300 nM preincubated for 30 mins by spectrophotometric assay.

Experiment [7] is filed under the species Homo sapiens. Put plainly: Selectivity ratio, ratio of Ki for human recombinant cathepsin L to Ki for human recombinant cathepsin K.
The species entered for experiment [8] is Homo sapiens. Put plainly: Selectivity ratio, ratio of Ki for human cathepsin S to Ki for human recombinant cathepsin K.

Cathepsin S, sequence (P25774 whole entry): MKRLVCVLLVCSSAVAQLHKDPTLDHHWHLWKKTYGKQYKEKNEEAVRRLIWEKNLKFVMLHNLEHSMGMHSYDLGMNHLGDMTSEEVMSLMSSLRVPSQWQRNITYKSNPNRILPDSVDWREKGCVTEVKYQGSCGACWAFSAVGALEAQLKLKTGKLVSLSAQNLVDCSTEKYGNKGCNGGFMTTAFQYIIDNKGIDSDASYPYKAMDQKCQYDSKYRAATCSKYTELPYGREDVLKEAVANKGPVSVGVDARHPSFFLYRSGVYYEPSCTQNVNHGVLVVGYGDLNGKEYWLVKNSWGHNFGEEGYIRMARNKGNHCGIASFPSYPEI

The Ki is a dissociation constant, usually derived from enzyme kinetics or from competition with a known ligand. In the case of `C[C@H](NC(=O)OCc1ccccc1)C(=O)N(C)N(C)C#N`, the Ki in experiment [1] came to 480 nM; in experiment [2], 55 nM; in experiment [3], 33 nM; in experiment [4] it was 9.1 nM.
For `Cc1nc(-c2ccc(CNC(=O)N[C@@H](CC(C)C)C(=O)N(C)N(C)C#N)cc2)no1`, the Ki in experiment [1] was 1.4 nM; in experiment [2], 2.8 nM; in experiment [3], 0.11 nM; in experiment [4], 0.17 nM.
For the molecule `CC[C@H](C)[C@H](NC(=O)OCc1ccccc1)C(=O)N(C)N(C)C#N`, the Ki is 2.6 nM in experiment [1], 0.88 nM in experiment [2], 0.46 nM in experiment [3] and 0.83 nM in experiment [4].
For the molecule `CC(C)C[C@@H](C(=O)N(C)N(C)C#N)N(C)C(=O)c1ccc(-c2noc(-c3cccs3)n2)cc1`, the Ratio Ki worked out at 800 in experiment [5], 4300 in experiment [7] and 200 in experiment [8]. Moreover, the result in experiment [6] was Active. The Ki in experiment [1] turned out to be 2700 nM; in experiment [2], 510 nM; in experiment [3] it was 0.63 nM; in experiment [4] it was 140 nM.
As for `CN(C#N)N(C)C(=O)[C@H](Cc1ccccc1)NC(=O)OCc1ccccc1`, the Ki is 0.16 nM in experiment [1], 0.68 nM in experiment [2], 0.14 nM in experiment [3] and 0.51 nM in experiment [4].
For `CC(C)C[C@H](NC(=O)NCc1ccc(-c2noc(-c3cccs3)n2)cc1)C(=O)N(C)N(C)C#N`, the Ki came out at 1.1 nM in experiment [1], 1.3 nM in experiment [2], 0.072 nM in experiment [3] and 0.16 nM in experiment [4].
For `CN(C#N)N(C)C(=O)[C@H](Cc1ccc(O)cc1)NC(=O)OCc1ccccc1`, the Ki is 0.36 nM in experiment [1], 0.38 nM in experiment [2], 0.16 nM in experiment [3] and 0.86 nM in experiment [4].
The like results for `CC(C)C[C@H](NC(=O)OCc1ccccc1)C(=O)N(C)N(C)C#N` were, in that order, 0.9 nM, 0.43 nM, 0.064 nM and 0.33 nM.
As to `Cc1nc(-c2ccc(NC(=O)N[C@@H](CC(C)C)C(=O)N(C)N(C)C#N)cc2)no1`, the Ki in experiment [1] was found to be 2 nM; in experiment [2] it was 2.4 nM; in experiment [3], 0.045 nM; in experiment [4], 0.19 nM.
Turning to `CC(C)C[C@H](NC(=O)c1ccc(-c2noc(-c3cccs3)n2)cc1)C(=O)NCC#N`, in experiment [7], the Ratio Ki stood at 300. Further, the Ki was 940 nM in experiment [1], greater than 22000 nM in experiment [2], 2.9 nM in experiment [3] and 140 nM in experiment [4].
Take `CC(C)C[C@@H](C(=O)NCC#N)N(C)C(=O)c1ccc(-c2noc(-c3cccs3)n2)cc1`: the Ki in experiment [1] is greater than 22000 nM; in experiment [2], greater than 22000 nM; in experiment [3], 270 nM; in experiment [4] it was greater than 22000 nM.
Consider `CN(C#N)N(C)C(=O)[C@H](CC1CCCCC1)NC(=O)OCc1ccccc1`, for which the Ki was found to be 0.4 nM in experiment [1], 0.48 nM in experiment [2], 0.071 nM in experiment [3] and 0.2 nM in experiment [4].
For `CC(C)C[C@H](NC(=O)NCc1ccccc1)C(=O)N(C)N(C)C#N`, in that order: 0.39 nM, 0.65 nM, 0.011 nM and 0.2 nM.
As to `CC(C)C[C@H](NC(=O)Nc1ccccc1)C(=O)N(C)N(C)C#N`, the Ki stood at 0.045 nM in experiment [1], 1.3 nM in experiment [2], 0.017 nM in experiment [3] and 0.16 nM in experiment [4].
As to `CN(C#N)N(C)C(=O)CNC(=O)OCc1ccccc1`, the Ki in experiment [1] came out at 860 nM; in experiment [2], 840 nM; in experiment [3], 260 nM; in experiment [4] it was 800 nM.
As for `CC(C)C[C@H](NC(=O)Nc1ccc(-c2noc(-c3cccs3)n2)cc1)C(=O)N(C)N(C)C#N`, the Ki in experiment [1] stood at 4.4 nM; in experiment [2] it was 2.4 nM; in experiment [3] it was 0.022 nM; in experiment [4], 0.32 nM.
In the case of `CC(C)C[C@H](NC(=O)Nc1ccc(-c2noc(-c3cccs3)n2)cc1)C(=O)NCC#N`, the Ki in experiment [1] is 4700 nM; in experiment [2] it was greater than 22000 nM; in experiment [3], 34 nM; in experiment [4], 180 nM.
For `CC(C)C[C@H](NC(=O)c1ccc(-c2noc(-c3cccs3)n2)cc1)C(=O)N(C)N(C)C#N`, the Ki in experiment [1] came to 0.22 nM; in experiment [2] it was 0.36 nM; in experiment [3] it was 0.032 nM; in experiment [4] it was 0.15 nM.
For `CC(C)[C@H](NC(=O)OCc1ccccc1)C(=O)N(C)N(C)C#N`, in that order: 1.5 nM, 4.3 nM, 0.87 nM and 1.5 nM.
